This is an account of results in US5167949A, “4(3H)-pteridinones, preparation processes and drugs containing them” (Lipha, Lyonnaise Industrielle Pharmaceutique, priority 1989, dated 1992).

Data set [1] deals with passive cutaneous anaphylaxis. Briefly: passive cutaneous anaphylaxis (PCA) test. It is filed as in vivo. The note with it: Rattus norvegicus, rats, dose decreasing by 50% the skin area occupied by the dye. On the procedure:
The anti-allergic activity was measured in rats by the passive cutaneous anaphylaxis or PCA test described by I. Mota, Life Sciences 1963, 7, 465 and Z. Ovary et al., Proceedings of Society of Experimental Biology and Medicine 1952, 81, 584.
In this test, the skin of rats is sensitized by 4 intradermal injections of a homologous anti-ovalbumin serum diluted 15-fold. On the day following sensitization, the animals receive 1 ml/kg of a 2.5% saline solution of Evans blue and 1 ml/kg of a 2.5% saline solution of ovalbumin simultaneously by intravenous injection. The test compounds are administered before the antigen, the time interval being 5 min by intraperitoneal injection and 10 min by the oral route. Thirty minutes after injection of the ovalbumin/dye mixture, the animals are sacrificed and the intensity of the allergic response is determined by measuring the area of skin coloration. The protection provided by the products of the invention is expressed as an ED50 (dose decreasing by 50% the skin area occupied by the dye). Four rats are used for each dose of product.

Another data set is described as follows: in vivo. The following applies: read-out: median lethal dose. The method, then:
By way of illustration, for the compound described in Example 1, the median lethal doses determined orally on rats and on mice are above 2,000 mg/kg, and the median lethal doses determined intraperitoneally and intravenously on mice are above 1,600 mg/kg.

In another data set the test system is PAF-acether. Briefly: bronchospasm induced in anaesthetized guinea pigs by PAF-acether. It is filed as in vivo. The note with it: Cavia porcellus, intravenous, PAF-acether 10 ng/kg/IV. The text has this:
The compounds described are distinguished, in addition, from known products by their long duration of action and by a capacity for antagonizing the effects of PAF-acether, especially its bronchoconstrictor effects.

Setting [2] is: ip, intraperitoneal, 5 min before antigen.

SMILES strings stand for the structures. Read-outs that look alike come from different tables or passages of the source. A value given as a limit tells only on which side of the number the result lay.

Take `O=c1[nH]c(COc2ccccc2)nc2nccnc12` [Example 9, 2-Phenoxymethyl-4(3H)-pteridinone]: the ED50 (usually the dose that gives a 50% effect, or the effect in half of the subjects) in data set [1] (setting [2]) is 39 mg/kg.

For the molecule `CCCOCc1nc2nccnc2c(=O)[nH]1` [Example 4, 2-Propoxymethyl-4(3H)-pteridinone], the ED50 in data set [1] (setting [2]) was determined as 9 mg/kg; in data set [1] (oral, 10 min before antigen), 25 mg/kg.

As to `CCOCc1nc2nccnc2c(=O)[nH]1` [Example 1, 2-Ethoxymethyl-4(3H)-pteridinone], the LD50 was over 1600 mg/kg in the data set “in vivo” (mouse, ip, mice, intraperitoneal); over 1600 mg/kg in “in vivo” (mouse, mice, intravenous); over 2000 mg/kg in “in vivo” (mouse, mice, oral); over 2000 mg/kg in the data set “in vivo” (rat, rats, oral). Further, the ED50 in data set [1] (setting [2]) amounted to 7 mg/kg; in data set [1] (oral, 10 min before antigen), 24 mg/kg; in the data set on PAF-acether it was 0.068 mg/kg.

Take `COCc1nc2nccnc2c(=O)[nH]1` [Example 3, 2-Methoxymethyl-4(3H)-pteridinone]: the ED50 in data set [1] (setting [2]) was 14 mg/kg; in data set [1] (oral, 10 min before antigen) it was 33 mg/kg.

On to `CCOCc1nc2nc(O)cnc2c(=O)[nH]1` [Example 7, 2-Ethoxymethyl-7-hydroxy-4(3H)-pteridinone], for which the ED50 in data set [1] (setting [2]) amounted to 21 mg/kg.

For `COCOCc1nc2nccnc2c(=O)[nH]1` [Example 12, 2-Methoxymethoxymethyl-4(3H)-pteridinone], the 50% effect level in data set [1] (setting [2]) (ED50) was put at a dose of 18 mg/kg.

For `O=c1[nH]c(COCc2ccccc2)nc2nccnc12` [Example 11, 2-Benzyloxymethyl-4(3H)-pteridinone], the median effective dose (ED50) came to 10 mg/kg in data set [1] (setting [2]) and 48 mg/kg in data set [1] (oral, 10 min before antigen).

In data set [1] (setting [2]), `CC(C)OCc1nc2nccnc2c(=O)[nH]1` [Example 13, 2-Isopropoxymethyl-4(3H)-pteridinone] displayed an ED50 of 14 mg/kg.
